According to patent publication US11123330B2, “Methods and compositions for inhibiting mutant EGFR signaling” (The Governing Council of the University of Toronto, priority 2017, dated 2021):

How the values were obtained:
[1] = system: reporter cells expressing FGFR4 bait; assay: Viability of reporter cells expressing FGFR4 bait; assay type: cell-based
Method: (§1) Cell viability assays. MaMTH stable bait cells or Ba/F3 cells were seeded into 96 well plates at 10,000 cells per well. For MaMTH stable cells, the cells were treated the next day with each inhibitor in a dose-dependent manner in addition to 0.5 ug/mL tetracyline to induce bait expression. For BaF3 cells, the cells were treated with each compound the same day as seeding. After 72 hours of drug treatment, cell viability was measured using the CellTiter-Glo assay (Promega).

[2] = system: reporter cells expressing ALK bait; assay: Viability of reporter cells expressing ALK bait; assay type: cell-based
EGFR-WT = molecular target: T1, EGFR-WT (Homo sapiens, UniProt P00533); assay: MaMTH assay, EGFR-WT bait with Shc1 prey; assay type: cell-based; conditions: for WT > 50% Inhibition / Average Percent: EGFR-WT bait, Shc1 prey; for Average Percent: retest in triplicate, MaMTH signal remaining (low = inhibition)
T1 construct: change the phosphorylation status of full-length EGFR proteins in the context of living cells; expressed in transfected cells

EGFR-L858R-T790M-C797S = molecular target: T2, EGFR-L858R-T790M-C797S (Homo sapiens, UniProt P00533, C797S/L858R/T790M); assay: MaMTH / MaMTH-DS assay, EGFR-L858R-T790M-C797S bait with Shc1 prey; assay type: cell-based; conditions: retest in triplicate, MaMTH signal remaining (low = inhibition)
T2 construct: change the phosphorylation status of full-length EGFR proteins in the context of living cells; expressed in transfected cells

[3] = system: reporter cells expressing MET bait; assay: Viability of reporter cells expressing MET bait; assay type: cell-based
MET = molecular target: T3, MET (Homo sapiens, UniProt P08581); assay: MaMTH-DS assay, MET bait with Shc1 prey; assay type: cell-based
T3 construct: expressed in transfected cells

FGFR4 = molecular target: T4, FGFR4 (Homo sapiens, UniProt P22455); assay: MaMTH-DS assay, FGFR4 bait with Shc1 prey; assay type: cell-based
T4 construct: expressed in transfected cells

AXL = molecular target: T5, AXL (Homo sapiens, UniProt P30530); assay: MaMTH-DS assay, AXL bait with Shc1 prey; assay type: cell-based
T5 construct: expressed in transfected cells
T5 sequence (P30530 26-894): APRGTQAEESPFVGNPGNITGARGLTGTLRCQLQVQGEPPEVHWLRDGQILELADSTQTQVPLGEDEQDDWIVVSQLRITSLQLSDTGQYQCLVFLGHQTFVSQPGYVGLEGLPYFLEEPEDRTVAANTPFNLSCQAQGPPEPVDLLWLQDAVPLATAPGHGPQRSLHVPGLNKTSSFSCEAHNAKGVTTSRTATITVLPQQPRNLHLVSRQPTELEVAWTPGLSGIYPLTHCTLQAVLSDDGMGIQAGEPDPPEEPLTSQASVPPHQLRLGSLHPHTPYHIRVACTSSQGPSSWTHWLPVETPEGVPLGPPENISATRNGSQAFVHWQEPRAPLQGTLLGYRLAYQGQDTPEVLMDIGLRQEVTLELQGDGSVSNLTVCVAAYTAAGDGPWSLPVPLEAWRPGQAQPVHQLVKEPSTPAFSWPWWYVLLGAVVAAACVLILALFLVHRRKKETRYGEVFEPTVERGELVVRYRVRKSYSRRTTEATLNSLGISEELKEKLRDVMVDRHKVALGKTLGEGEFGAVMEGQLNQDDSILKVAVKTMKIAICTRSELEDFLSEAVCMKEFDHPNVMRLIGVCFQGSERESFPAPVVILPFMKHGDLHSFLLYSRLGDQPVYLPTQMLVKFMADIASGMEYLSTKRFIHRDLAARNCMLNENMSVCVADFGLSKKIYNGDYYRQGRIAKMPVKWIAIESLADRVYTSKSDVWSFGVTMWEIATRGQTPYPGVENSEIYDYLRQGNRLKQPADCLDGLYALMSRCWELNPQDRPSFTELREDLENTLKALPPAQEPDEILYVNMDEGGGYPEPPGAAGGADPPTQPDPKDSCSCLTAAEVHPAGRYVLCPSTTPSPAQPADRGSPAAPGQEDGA
From the text: To test MaMTH-DS sensitivity and its potential suitability for use in RTK drug screening, we selected several RTKs whose dysfunction is associated with cancer, and prepared stable MaMTH-DS ‘baits’ in our reporter cell lines. We then performed MaMTH-DS assays in the presence of transfected Shcl functional adapter protein ‘prey’ and small-molecule TKIs, including both control molecules and compounds known to specifically target the function of the corresponding RTKs. First, we examined the response of the RTK MET to the TKIs Crizotinib and Erlotinib using MaMTH-DS.
MaMTH assays. Cells stably expressing bait of interest (EGFR, MET, FGFR4, ALK, AXL) were seeded into 96-well TC-treated plates and grown at 37° C./5% CO2 overnight in DMEM/10% FBS/1% PS to ˜50-60% confluency. Cells were transfected with 50 ng/well of Nub-Shc1 ‘prey’ protein by calcium phosphate precipitation. Five hours after transfection, media was aspirated out and cells were treated with 100 uL of fresh media containing specific compound and 0.5 ug/ml of tetracyline to induce bait expression. After 24 hours, luciferase activity was measured by chemoluminescence.

[4] = system: reporter cells expressing AXL bait; assay: Viability of reporter cells expressing AXL bait; assay type: cell-based
Method: as §1

EGFR L858R/T790M = molecular target: T6, EGFR L858R/T790M (Homo sapiens, UniProt P00533, L858R/T790M); assay: MaMTH assay, EGFR L858R/T790M bait with Shc1 prey; assay type: cell-based
T6 construct: change the phosphorylation status of full-length EGFR proteins in the context of living cells; expressed in transfected cells

EGFR ex19del/T790M/C797S = EGFR ex19del/T790M/C797S (Homo sapiens, UniProt P00533, C797S/DEL746-750/T790M); assay: In vitro kinase assay, EGFR ex19del/T790M/C797S kinase domain; assay type: biochemical
EGFR ex19del-T790M = assay: In vitro kinase assay, EGFR ex19del-T790M; assay type: biochemical
[5] = system: EGFR and downstream signaling molecules in PC9 EGFR-ex19del-T790M-C797S cells; assay: EGFR activation and downstream signaling in PC9 EGFR-ex19del-T790M-C797S cells; assay type: cell-based
[6] = system: PC9 EGFR ex19del/T790M/C797S organoids; assay: Organoid viability, PC9 EGFR ex19del/T790M/C797S organoids; assay type: cell-based; conditions: 72 hours with compound
[7] = system: PC9 EGFR ex19del/T790M/C797S cells; assay: Cell viability, PC9 EGFR ex19del/T790M/C797S cells; assay type: cell-based; conditions: for cell viability in combination with compound 5213777: with 50 nM of compound 5213777, 72 hours, compared to alone; for cell viability in combination with Panitumumab: with 10 ug/ml Panitumumab, 72 hours
wild-type EGFR = molecular target: T7, wild-type EGFR (Homo sapiens, UniProt P00533); assay: In vitro kinase assay, EGFR WT kinase domain; assay type: biochemical; conditions: up to 10 micromolar
T7 construct: recombinant proteins of the kinase domain of wild-type EGFR; purchased Reaction Biology Corporation

EGFR double mutants = assay: In vitro kinase assay, EGFR double mutants; assay type: biochemical
[8] = system: Ba/F3 cells expressing EGFR-L858R-T790M-C797S; assay: Ba/F3 cell viability (CellTiter-Glo), EGFR-L858R-T790M-C797S; assay type: cell-based; conditions: for cell viability in combination with anti-EGFR antibody: with 68 nM Cetuximab or 140 nM Panitumumab
[9] = system: Ba/F3 cells expressing EGFR-ex19del-T790M-C797S; assay: Ba/F3 cell viability (CellTiter-Glo), EGFR-ex19del-T790M-C797S; assay type: cell-based; conditions: for cell viability in combination with anti-EGFR antibody: with 68 nM Cetuximab or 140 nM Panitumumab
[10] = system: EGFR and downstream signalling molecules in Ba/F3 EGFR-L858R-T790M-C797S cells; assay: Western analysis of EGFR and downstream signalling, Ba/F3 EGFR-L858R-T790M-C797S; assay type: cell-based
[11] = system: EGFR and downstream signalling molecules in Ba/F3 EGFR-ex19del-T790M-C797S cells; assay: Western analysis of EGFR and downstream signalling, Ba/F3 EGFR-ex19del-T790M-C797S; assay type: cell-based
[12] = system: PC9 EGFR ex19del/T790M/C797S cells; assay: Caspase 3 and 7 activity, PC9 EGFR ex19del/T790M/C797S cells; assay type: cell-based
CFBE cells = assay: Caspase 3 and 7 activity, CFBE cells; assay type: cell-based

T4 sequence (P22455 22-802): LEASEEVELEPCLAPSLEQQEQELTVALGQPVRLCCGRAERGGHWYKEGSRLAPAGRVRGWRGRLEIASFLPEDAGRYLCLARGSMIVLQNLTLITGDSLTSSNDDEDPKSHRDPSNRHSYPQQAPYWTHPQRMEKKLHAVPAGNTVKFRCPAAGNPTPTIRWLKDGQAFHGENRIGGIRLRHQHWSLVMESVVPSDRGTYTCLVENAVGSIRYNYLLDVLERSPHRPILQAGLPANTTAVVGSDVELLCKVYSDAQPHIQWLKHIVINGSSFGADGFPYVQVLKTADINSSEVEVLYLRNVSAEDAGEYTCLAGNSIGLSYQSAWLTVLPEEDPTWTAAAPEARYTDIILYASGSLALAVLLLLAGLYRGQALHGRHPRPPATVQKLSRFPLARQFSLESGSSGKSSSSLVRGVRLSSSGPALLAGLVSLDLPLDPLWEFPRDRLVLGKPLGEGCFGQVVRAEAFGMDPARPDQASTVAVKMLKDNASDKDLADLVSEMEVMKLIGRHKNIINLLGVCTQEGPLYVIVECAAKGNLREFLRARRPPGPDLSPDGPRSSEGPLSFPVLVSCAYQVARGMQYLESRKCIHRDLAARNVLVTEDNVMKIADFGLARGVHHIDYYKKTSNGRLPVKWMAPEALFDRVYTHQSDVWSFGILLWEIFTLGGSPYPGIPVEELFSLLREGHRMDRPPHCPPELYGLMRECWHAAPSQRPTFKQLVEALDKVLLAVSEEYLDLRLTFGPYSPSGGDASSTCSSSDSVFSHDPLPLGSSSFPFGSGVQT
T3 sequence (P08581 308-1390 limits assumed): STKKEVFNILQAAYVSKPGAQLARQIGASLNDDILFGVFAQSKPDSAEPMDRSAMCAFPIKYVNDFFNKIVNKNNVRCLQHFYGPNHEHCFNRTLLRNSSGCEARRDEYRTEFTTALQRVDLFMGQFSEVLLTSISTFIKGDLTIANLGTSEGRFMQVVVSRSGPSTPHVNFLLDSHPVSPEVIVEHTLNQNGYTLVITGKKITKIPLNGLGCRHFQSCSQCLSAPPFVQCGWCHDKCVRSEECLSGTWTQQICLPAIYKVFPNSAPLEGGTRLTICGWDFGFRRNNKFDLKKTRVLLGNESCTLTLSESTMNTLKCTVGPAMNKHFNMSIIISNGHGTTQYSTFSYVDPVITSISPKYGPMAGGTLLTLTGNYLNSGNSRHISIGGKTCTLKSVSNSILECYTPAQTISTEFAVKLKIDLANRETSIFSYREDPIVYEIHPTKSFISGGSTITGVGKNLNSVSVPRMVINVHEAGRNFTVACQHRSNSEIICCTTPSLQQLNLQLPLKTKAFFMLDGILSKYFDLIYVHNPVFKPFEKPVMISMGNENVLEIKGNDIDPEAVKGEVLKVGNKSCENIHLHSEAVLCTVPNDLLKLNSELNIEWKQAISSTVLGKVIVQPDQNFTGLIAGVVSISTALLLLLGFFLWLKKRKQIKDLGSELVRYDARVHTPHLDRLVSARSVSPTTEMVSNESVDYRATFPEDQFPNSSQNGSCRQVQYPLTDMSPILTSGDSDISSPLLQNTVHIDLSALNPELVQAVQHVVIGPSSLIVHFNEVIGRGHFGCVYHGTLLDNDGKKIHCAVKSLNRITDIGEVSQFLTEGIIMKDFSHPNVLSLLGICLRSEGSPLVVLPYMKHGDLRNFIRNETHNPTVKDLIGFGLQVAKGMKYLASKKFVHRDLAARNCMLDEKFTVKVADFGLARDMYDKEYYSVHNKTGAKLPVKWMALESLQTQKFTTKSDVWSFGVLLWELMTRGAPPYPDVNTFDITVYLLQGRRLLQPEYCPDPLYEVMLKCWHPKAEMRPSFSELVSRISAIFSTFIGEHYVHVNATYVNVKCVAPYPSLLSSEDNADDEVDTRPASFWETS
T3 sequence (P08581 25-307 partner limits assumed): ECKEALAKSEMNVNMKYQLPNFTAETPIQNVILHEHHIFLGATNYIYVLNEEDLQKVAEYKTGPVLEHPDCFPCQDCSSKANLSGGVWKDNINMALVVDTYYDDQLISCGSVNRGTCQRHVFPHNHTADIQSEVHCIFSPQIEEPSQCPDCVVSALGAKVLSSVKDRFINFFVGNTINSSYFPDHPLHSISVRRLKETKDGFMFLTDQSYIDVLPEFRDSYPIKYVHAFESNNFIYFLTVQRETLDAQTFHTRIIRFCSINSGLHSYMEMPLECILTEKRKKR

C=CC(=O)Nc1cccc(C)c1Nc1ncc2cc(-c3c(Cl)c(OC)cc(OC)c3Cl)ccc2n1 [BLU9931]
reporter cell viability [1]: no effect

COc1cc(N2CCC(N3CCN(C)CC3)CC2)ccc1Nc1ncc(Cl)c(Nc2ccccc2P(C)(C)=O)n1 [Brigatinib]
reporter cell viability [2]: unaffected

C/C(=C\c1ccc(Cl)cc1)[N+](=O)[O-] [Compound 5238658]
WT > 50% Inhibition (EGFR-WT): YES | Average Percent (EGFR-WT): 0.9% | Average Percent (EGFR-L858R-T790M-C797S): 0.2%

CC1CC(Nc2ccccc2)c2ccccc2N1C(=O)c1cccs1 (stereo not drawn) [Compound 5304079]
WT > 50% Inhibition (EGFR-WT): YES | Average Percent (EGFR-WT): 21.5% | Average Percent (EGFR-L858R-T790M-C797S): 11.7%

O=c1c(Cl)c(Cl)cnn1Cc1ccccc1 [Compound 5357830]
WT > 50% Inhibition (EGFR-WT): YES | Average Percent (EGFR-WT): 6.2% | Average Percent (EGFR-L858R-T790M-C797S): 0.9%

C[C@@H](Oc1cc(-c2cnn(C3CCNCC3)c2)cnc1N)c1c(Cl)ccc(F)c1Cl [Crizotinib]
reporter cell viability [3]: not due to a loss in cell viability

C#Cc1cccc(Nc2ncnc3cc(OCCOC)c(OCCOC)cc23)c1 [Erlotinib]
MaMTH-DS interaction with Shc1 (MET): not | MaMTH-DS reporter activity (FGFR4): not | MaMTH-DS reporter activity (AXL): not

COc1cc2c(Oc3ccc(NC(=O)C4(C(=O)Nc5ccc(F)cc5)CC4)cc3F)ccnc2cc1OCCCN1CCOCC1 [Foretinib]
MaMTH-DS reporter activity (AXL): strongly reduced, in a dose-dependent manner | reporter cell viability [4]: unaffected

CCc1nc(C(N)=O)c(Nc2ccc(N3CCC(N4CCN(C)CC4)CC3)c(OC)c2)nc1NC1CCOCC1 [Gilteritinib, 6-ethyl-3-[3-methoxy-4-[4-(4-methylpiperazin-1-yl)piperidin-1-yl]anilino]-5-(oxan-4-ylamino)pyrazine-2-carboxamide]
interaction / complex formation with Shc1 (MaMTH, words) (EGFR-WT; EGFR WT bait): not | interaction / complex formation with Shc1 (MaMTH, words) (EGFR L858R/T790M): inhibited complex formation | effect on kinase activity (EGFR ex19del/T790M/C797S): most robust inhibition | effect on kinase activity (EGFR ex19del-T790M): preferentially inhibits | phosphorylation and/or expression of EGFR and downstream signaling molecules [5]: inhibits EGFR activation and downstream signaling | viability of PC9 organoids [6]: dose-dependent reduction | cell viability in combination with compound 5213777 [7]: increased effect | cell viability in combination with Panitumumab [7]: significantly enhanced

CO[C@@H]1[C@H](N(C)C(=O)c2ccccc2)C[C@H]2O[C@]1(C)n1c3ccccc3c3c4c(c5c6ccccc6n2c5c31)C(=O)NC4 [Midostaurin, N-[(9S,10R,11R,13R)-2,3,10,11,12,13-hexahydro-10-methoxy-9-methyl-1-oxo-9,13-epoxy-1H,9H-diindolo[1,2,3-gh:3′,2′,1′-lm]pyrrolo[3,4-j][1,7]benzodiazonin-11-yl]-N-methylbenzamide]
Average Percent (EGFR-WT): 129.3% | Average Percent (EGFR-L858R-T790M-C797S): 10.5% | effect on kinase activity (wild-type EGFR): no significant effect | effect on kinase activity (EGFR ex19del/T790M/C797S): strongly inhibited | effect on kinase activity (EGFR double mutants): inhibits the kinase activity | cell viability ([8]; compound alone, 72 hours): robust, dose-dependent reduction | cell viability in combination with anti-EGFR antibody [8]: Enhanced effect | cell viability ([9]; compound alone, 72 hours): robust, dose-dependent reduction | cell viability in combination with anti-EGFR antibody [9]: Enhanced effect | phosphorylation and/or expression of EGFR and downstream signalling molecules [10]: strongest response | phosphorylation and/or expression of EGFR and downstream signalling molecules [11]: strongest response | phosphorylation and/or expression of EGFR and downstream signaling molecules [5]: inhibitory effect | caspase 3 and 7 activity [12]: dose-dependent activation | caspase 3 and 7 activity (CFBE cells): not observed | viability of PC9 organoids [6]: dose-dependent reduction | cell viability in combination with compound 5213777 [7]: increased effect | cell viability in combination with Panitumumab [7]: Enhanced effects

C=CC(=O)Nc1cc(Nc2nccc(-c3cn(C)c4ccccc34)n2)c(OC)cc1N(C)CCN(C)C [Osimertinib]
cell viability in combination with anti-EGFR antibody [8]: does not cause enhanced reduction | cell viability in combination with anti-EGFR antibody ([8]; listed as AZD9291): no such enhancement was evident | cell viability in combination with anti-EGFR antibody [9]: does not cause enhanced reduction | cell viability in combination with anti-EGFR antibody ([9]; listed as AZD9291): no such enhancement was evident | caspase 3 and 7 activity [12]: not observed | viability of PC9 organoids [6]: not observed
